Test system: MV-4-11 cells
Assay: Gene expression microarray analysis (Affymetrix PrimeView) and GSEA
Format: cell-based, human
Parameters: RFU PODN (11730768_x_at) / Fold change /veh PODN (11730768_x_at) / RFU LINC00158 (11744669_a_at) / Fold change /veh LINC00158 (11744669_a_at) / RFU DUSP10 (11751237_a_at) / Fold change /veh DUSP10 (11751237_a_at) / RFU ID3 (11757404_x_at) / Fold change /veh ID3 (11757404_x_at) / RFU PLEKHG5 (11737974_s_at) / Fold change /veh PLEKHG5 (11737974_s_at) / RFU LRRC4B (11730491_at) / Fold change /veh LRRC4B (11730491_at) / RFU GIMAP4 (11747438_a_at) / Fold change /veh GIMAP4 (11747438_a_at) / RFU KRT8 (11758183_x_at) / Fold change /veh KRT8 (11758183_x_at) / RFU CNN1 (11734310_a_at) / Fold change /veh CNN1 (11734310_a_at) / RFU VPS37D (11726825_at) / Fold change /veh VPS37D (11726825_at) / RFU C10orf10 (11716522_x_at) / Fold change /veh C10orf10 (11716522_x_at) / RFU KIR2DL2 /// KIR2DL4 /// KIR2DL5A /// KIR2DL5B /// KIR2DS1 /// KIR2DS2 /// KIR2DS3 /// KIR2DS4 /// KIR3DL3 /// KIR3DL3 /// KIR3DS1 (11738374_at) / Fold change /veh KIR2DL2 /// KIR2DL4 /// KIR2DL5A /// KIR2DL5B /// KIR2DS1 /// KIR2DS2 /// KIR2DS3 /// KIR2DS4 /// KIR3DL3 /// KIR3DL3 /// KIR3DS1 (11738374_at) / RFU C1QL1 (11718748_at) / Fold change /veh C1QL1 (11718748_at) / RFU TMPRSS4 (11747572_a_at) / Fold change /veh TMPRSS4 (11747572_a_at) / RFU HAMP (11756126_x_at) / Fold change /veh HAMP (11756126_x_at) / RFU RNFT2 (11725882_a_at) / Fold change /veh RNFT2 (11725882_a_at) / RFU NR4A2 (11747474_a_at) / Fold change /veh NR4A2 (11747474_a_at) / RFU ABCC12 (11746883_a_at) / Fold change /veh ABCC12 (11746883_a_at) / RFU TMEM136 (11760407_x_at) / Fold change /veh TMEM136 (11760407_x_at) / RFU CLDN22 /// WWC2 (11732394_at) / Fold change /veh CLDN22 /// WWC2 (11732394_at) / RFU HLA-DPB1 (11760878_x_at) / Fold change /veh HLA-DPB1 (11760878_x_at) / RFU SPINT1 (11716480_a_at) / Fold change /veh SPINT1 (11716480_a_at) / RFU GAP43 (11754022_s_at) / Fold change /veh GAP43 (11754022_s_at) / RFU A4GNT (11735810_at) / Fold change /veh A4GNT (11735810_at) / RFU PRB3 (11715151_x_at) / Fold change /veh PRB3 (11715151_x_at) / RFU TUBB4B (11761932_at) / Fold change /veh TUBB4B (11761932_at) / RFU CAPN14 (11732068_a_at) / Fold change /veh CAPN14 (11732068_a_at) / RFU TMCC2 (11721928_a_at) / Fold change /veh TMCC2 (11721928_a_at) / RFU IRGQ (11745062_a_at) / Fold change /veh IRGQ (11745062_a_at) / RFU FAM174B (11720279_a_at) / Fold change /veh FAM174B (11720279_a_at) / RFU TMPRSS4 (11748680_a_at) / Fold change /veh TMPRSS4 (11748680_a_at) / RFU FAM212B (11763350_a_at) / Fold change /veh FAM212B (11763350_a_at) / RFU PLEKHG5 (11743358_a_at) / Fold change /veh PLEKHG5 (11743358_a_at) / RFU ZSCAN30 (11745921_a_at) / Fold change /veh ZSCAN30 (11745921_a_at) / RFU CMKLR1 (11741424_a_at) / Fold change /veh CMKLR1 (11741424_a_at) / RFU LOC101060620 /// MAPK8IP1 (11723275_at) / Fold change /veh LOC101060620 /// MAPK8IP1 (11723275_at) / RFU SPTSSB (11747773_x_at) / Fold change /veh SPTSSB (11747773_x_at) / RFU PRSS12 (11739890_at) / Fold change /veh PRSS12 (11739890_at) / RFU BIN1 (11741810_x_at) / Fold change /veh BIN1 (11741810_x_at) / RFU WNT11 (11732464_a_at) / Fold change /veh WNT11 (11732464_a_at) / RFU C10orf10 (11716521_a_at) / Fold change /veh C10orf10 (11716521_a_at) / RFU C5orf56 (11738089_at) / Fold change /veh C5orf56 (11738089_at) / RFU CYB561 (11721691_x_at) / Fold change /veh CYB561 (11721691_x_at) / RFU ANKRD19P (11752326_a_at) / Fold change /veh ANKRD19P (11752326_a_at) / RFU OR2T12 /// OR2T33 /// OR2T8 (11738714_s_at) / Fold change /veh OR2T12 /// OR2T33 /// OR2T8 (11738714_s_at) / RFU VCAN (11748164_a_at) / Fold change /veh VCAN (11748164_a_at) / RFU JSRP1 (11732532_at) / Fold change /veh JSRP1 (11732532_at) / RFU KRTAP10-11 (11738290_x_at) / Fold change /veh KRTAP10-11 (11738290_x_at) / RFU MYO3A (11730013_a_at) / Fold change /veh MYO3A (11730013_a_at) / RFU EBF3 (11725865_a_at) / Fold change /veh EBF3 (11725865_a_at) / RFU CAMK2N1 (11719241_x_at) / Fold change /veh CAMK2N1 (11719241_x_at) / RFU C5orf56 (11738088_a_at) / Fold change /veh C5orf56 (11738088_a_at) / RFU OLFML3 (11715873_a_at) / Fold change /veh OLFML3 (11715873_a_at) / RFU LOC100653217 /// NTM (11731650_a_at) / Fold change /veh LOC100653217 /// NTM (11731650_a_at) / RFU MAPK11 (11762145_a_at) / Fold change /veh MAPK11 (11762145_a_at) / RFU FIZ1 (11724087_x_at) / Fold change /veh FIZ1 (11724087_x_at) / RFU OASL (11726364_x_at) / Fold change /veh OASL (11726364_x_at) / RFU SOX15 (11748057_x_at) / Fold change /veh SOX15 (11748057_x_at) / RFU CD79A (11719716_a_at) / Fold change /veh CD79A (11719716_a_at) / RFU HIST1H1D (11736915_at) / Fold change /veh HIST1H1D (11736915_at) / RFU CASKIN2 (11723855_a_at) / Fold change /veh CASKIN2 (11723855_a_at) / RFU LOC730098 (11760151_x_at) / Fold change /veh LOC730098 (11760151_x_at) / RFU OR4N2 (11742367_at) / Fold change /veh OR4N2 (11742367_at) / RFU PRRT2 (11749266_a_at) / Fold change /veh PRRT2 (11749266_a_at) / RFU SNX32 (11753110_a_at) / Fold change /veh SNX32 (11753110_a_at) / RFU CDHR5 (11726645_a_at) / Fold change /veh CDHR5 (11726645_a_at) / RFU RCAN1 (11760418_a_at) / Fold change /veh RCAN1 (11760418_a_at) / RFU FAM167A (11723789_a_at) / Fold change /veh FAM167A (11723789_a_at) / RFU FAM26E (11764081_at) / Fold change /veh FAM26E (11764081_at) / RFU ISYNA1 (11749810_s_at) / Fold change /veh ISYNA1 (11749810_s_at) / RFU ACY1 (11761880_at) / Fold change /veh ACY1 (11761880_at) / RFU 11764098_at / Fold change /veh 11764098_at / RFU SAMD14 (11745864_x_at) / Fold change /veh SAMD14 (11745864_x_at) / RFU NPB (11741838_a_at) / Fold change /veh NPB (11741838_a_at) / RFU TMPRSS6 (11731388_a_at) / Fold change /veh TMPRSS6 (11731388_a_at) / RFU KRTAP10-2 (11738614_at) / Fold change /veh KRTAP10-2 (11738614_at) / RFU ARHGAP8 /// PRR5-ARHGAP8 (11727945_x_at) / Fold change /veh ARHGAP8 /// PRR5-ARHGAP8 (11727945_x_at) / RFU KRTAP5-7 /// NADSYN1 (11734609_at) / Fold change /veh KRTAP5-7 /// NADSYN1 (11734609_at) / RFU RASL12 (11751679_a_at) / Fold change /veh RASL12 (11751679_a_at) / RFU CDKN2B (11736163_a_at) / Fold change /veh CDKN2B (11736163_a_at) / RFU PRF1 (11729649_at) / Fold change /veh PRF1 (11729649_at) / RFU, ZNF638 /// ZNF638-IT1 / Fold change vs veh, ZNF638 /// ZNF638-IT1 / RFU, PANK3 / Fold change vs veh, PANK3 / RFU, SH3YL1 / Fold change vs veh, SH3YL1 / RFU, ZEB2 / Fold change vs veh, ZEB2 / RFU, NRIP1 / Fold change vs veh, NRIP1 / RFU, PTTG1IP / Fold change vs veh, PTTG1IP / RFU, CAPN2 / Fold change vs veh, CAPN2 / RFU, MED14 / Fold change vs veh, MED14 / RFU, SNORA58 / Fold change vs veh, SNORA58 / RFU, C1orf63 / Fold change vs veh, C1orf63 / RFU, LRRFIP1 / Fold change vs veh, LRRFIP1 / RFU, NDUFAF7 / Fold change vs veh, NDUFAF7 / RFU, SLC12A2 / Fold change vs veh, SLC12A2 / RFU, IBTK / Fold change vs veh, IBTK / RFU, ESF1 / Fold change vs veh, ESF1 / Fold change vs veh, TMEM50B / RFU, TAOK1 / Fold change vs veh, TAOK1 / RFU, ACBD3 / Fold change vs veh, ACBD3 / RFU, TMA16 / Fold change vs veh, TMA16 / RFU, RWDD3 / Fold change vs veh, RWDD3 / RFU, BCAT1 / Fold change vs veh, BCAT1 / RFU, EDEM3 / Fold change vs veh, EDEM3 / RFU, TMEM33 / Fold change vs veh, TMEM33 / RFU, WDR75 / Fold change vs veh, WDR75 / RFU, AHCTF1 / Fold change vs veh, AHCTF1 / RFU, TFRC / Fold change vs veh, TFRC / RFU, ZDHHC17 / Fold change vs veh, ZDHHC17 / RFU, NOM1 / Fold change vs veh, NOM1 / RFU, ARL8B / Fold change vs veh, ARL8B / RFU, ZBTB11 / Fold change vs veh, ZBTB11 / RFU, TAMM41 / Fold change vs veh, TAMM41 / RFU, KIAA1704 /// LOC100996395 / Fold change vs veh, KIAA1704 /// LOC100996395 / RFU, ING1 / Fold change vs veh, ING1 / RFU, TRMT61B / Fold change vs veh, TRMT61B / RFU, FUBP3 / Fold change vs veh, FUBP3 / RFU, TP53 / Fold change vs veh, TP53 / RFU, TNKS2 / Fold change vs veh, TNKS2 / RFU, ZFP14 / Fold change vs veh, ZFP14 / RFU, ACTR2 / Fold change vs veh, ACTR2 / RFU, PPP3R1 / Fold change vs veh, PPP3R1 / RFU, PIK3R1 / Fold change vs veh, PIK3R1 / RFU, HNRNPA1 / Fold change vs veh, HNRNPA1 / RFU, RNF170 / Fold change vs veh, RNF170 / RFU, ZNF28 / Fold change vs veh, ZNF28 / RFU, RNGTT / Fold change vs veh, RNGTT / RFU, OGT / Fold change vs veh, OGT / RFU, BRD1 / Fold change vs veh, BRD1 / RFU, MARS / Fold change vs veh, MARS / RFU, ZNF655 / Fold change vs veh, ZNF655 / RFU, FAHD1 / Fold change vs veh, FAHD1 / RFU, BDP1 / Fold change vs veh, BDP1 / RFU, LRRCC1 / Fold change vs veh, LRRCC1 / RFU, ARID1A / Fold change vs veh, ARID1A / RFU, ZNF146 / Fold change vs veh, ZNF146 / RFU, ZNF330 / Fold change vs veh, ZNF330 / RFU, GPN3 / Fold change vs veh, GPN3 / RFU, C9orf123 / Fold change vs veh, C9orf123 / RFU, N4BP2L2 / Fold change vs veh, N4BP2L2 / RFU, ARFIP1 / Fold change vs veh, ARFIP1 / RFU, FAM179B / Fold change vs veh, FAM179B / RFU, BCL10 / Fold change vs veh, BCL10 / RFU, UHRF1BP1L / Fold change vs veh, UHRF1BP1L / RFU, BET1 / Fold change vs veh, BET1 / RFU, CNOT2 / Fold change vs veh, CNOT2 / RFU, ZNF268 / Fold change vs veh, ZNF268 / Fold change vs veh, ZNF507 / RFU, DGCR2 / Fold change vs veh, DGCR2 / RFU, WDSUB1 / Fold change vs veh, WDSUB1 / Fold change vs veh, HSP90B1 /// MIR3652 / RFU, ADSS / Fold change vs veh, ADSS / RFU, GK / Fold change vs veh, GK / RFU, ZNF148 / Fold change vs veh, ZNF148 / RFU, TAF9 / Fold change vs veh, TAF9 / RFU, SLC1A5 / Fold change vs veh, SLC1A5 / RFU, SLMO2 / Fold change vs veh, SLMO2 / RFU, ABCC4 / Fold change vs veh, ABCC4 / RFU, LOC101060439 /// RAP1B / Fold change vs veh, LOC101060439 /// RAP1B / RFU, RFX7 / Fold change vs veh, RFX7 / RFU, GTPBP10 / Fold change vs veh, GTPBP10 / RFU, CNEP1R1 / Fold change vs veh, CNEP1R1 / RFU, BIVM-ERCC5 /// ERCC5 / Fold change vs veh, BIVM-ERCC5 /// ERCC5 / RFU, ILF3 / Fold change vs veh, ILF3 / RFU 11762660_at / Fold change /veh 11762660_at / RFU VCAN (11757783_s_at) / Fold change /veh VCAN (11757783_s_at) / RFU DDX43 (11728927_at) / Fold change /veh DDX43 (11728927_at) / RFU KRT8 (11758188_x_at) / Fold change /veh KRT8 (11758188_x_at) / RFU NKD1 (11759106_at) / Fold change /veh NKD1 (11759106_at) / RFU SRD5A1 (11742802_a_at) / Fold change /veh SRD5A1 (11742802_a_at) / RFU TPSAB1 /// TPSB2 (11721975_s_at) / Fold change /veh TPSAB1 /// TPSB2 (11721975_s_at) / RFU GSTM3 (11746129_a_at) / Fold change /veh GSTM3 (11746129_a_at) / RFU IL23R (11737362_x_at) / Fold change /veh IL23R (11737362_x_at) / RFU TMEM51 (11727254_a_at) / Fold change /veh TMEM51 (11727254_a_at) / RFU PIWIL2 (11732686_x_at) / Fold change /veh PIWIL2 (11732686_x_at) / RFU ORM1 (11744905_x_at) / Fold change /veh ORM1 (11744905_x_at) / RFU CCDC152 (11743942_at) / Fold change /veh CCDC152 (11743942_at) / RFU ECM1 (11717891_a_at) / Fold change /veh ECM1 (11717891_a_at) / RFU IL23R (11748794_a_at) / Fold change /veh IL23R (11748794_a_at) / RFU TNFAIP8L3 (11732012_x_at) / Fold change /veh TNFAIP8L3 (11732012_x_at) / RFU MBOAT4 (11741988_at) / Fold change /veh MBOAT4 (11741988_at) / RFU 11764193_at / Fold change /veh 11764193_at / RFU TMEM53 (11763286_at) / Fold change /veh TMEM53 (11763286_at) / RFU MAGEB2 (11727129_at) / Fold change /veh MAGEB2 (11727129_at) / RFU TMEM200A (11744735_a_at) / Fold change /veh TMEM200A (11744735_a_at) / RFU CCDC152 (11751479_a_at) / Fold change /veh CCDC152 (11751479_a_at) / RFU FAM211A (11726209_a_at) / Fold change /veh FAM211A (11726209_a_at) / RFU RGS16 (11746705_a_at) / Fold change /veh RGS16 (11746705_a_at) / RFU VCAN (11755009_s_at) / Fold change /veh VCAN (11755009_s_at) / RFU RHOB (11743442_s_at) / Fold change /veh RHOB (11743442_s_at) / RFU RGS16 (11720943_a_at) / Fold change /veh RGS16 (11720943_a_at) / RFU RGS16 (11720944_at) / Fold change /veh RGS16 (11720944_at) / RFU, VPS4B / Fold change vs veh, VPS4B / RFU, CREB1 / Fold change vs veh, CREB1 / RFU, DNAJC13 / Fold change vs veh, DNAJC13 / RFU, GNAQ / Fold change vs veh, GNAQ / RFU, CDK5R1 / Fold change vs veh, CDK5R1 / RFU, ZRANB3 / Fold change vs veh, ZRANB3 / RFU, CUL4A / Fold change vs veh, CUL4A / RFU, CCNY / Fold change vs veh, CCNY / RFU, UFL1 / Fold change vs veh, UFL1 / RFU, COG3 / Fold change vs veh, COG3 / RFU, DIAPH2 / Fold change vs veh, DIAPH2 / RFU, SKA2 / Fold change vs veh, SKA2 / RFU, AFF3 / Fold change vs veh, AFF3 / RFU, LMF1 / Fold change vs veh, LMF1 / RFU, IPO11 / Fold change vs veh, IPO11 / RFU, DFFB / Fold change vs veh, DFFB / RFU, FOXP1 / Fold change vs veh, FOXP1 / RFU, CARD8 / Fold change vs veh, CARD8 / RFU, STRN3 / Fold change vs veh, STRN3 / RFU, ADK / Fold change vs veh, ADK / RFU, RASSF2 / Fold change vs veh, RASSF2 / RFU, WIPF1 / Fold change vs veh, WIPF1 / RFU, LARP1B / Fold change vs veh, LARP1B / RFU, RASA1 / Fold change vs veh, RASA1 / RFU, RB1 / Fold change vs veh, RB1 / RFU, PPFIA1 / Fold change vs veh, PPFIA1 / RFU, MAT2A / Fold change vs veh, MAT2A / RFU, CCT5 / Fold change vs veh, CCT5 / RFU, WDR92 / Fold change vs veh, WDR92 / RFU, CUX1 / Fold change vs veh, CUX1 / RFU, TTC7A / Fold change vs veh, TTC7A / RFU, TMEM135 / Fold change vs veh, TMEM135 / RFU, DEPTOR / Fold change vs veh, DEPTOR / RFU, CPM / Fold change vs veh, CPM / RFU, DNAJB6 / Fold change vs veh, DNAJB6 / RFU, CACNA2D3 / Fold change vs veh, CACNA2D3 / RFU, DTX4 / Fold change vs veh, DTX4 / RFU, TFCP2 / Fold change vs veh, TFCP2 / RFU, GMCL1 /// GMCL1P1 / Fold change vs veh, GMCL1 /// GMCL1P1 / RFU, AEBP2 / Fold change vs veh, AEBP2 / RFU, SNHG1 /// SNORD22 /// SNORD25 /// SNORD26 /// SNORD27 /// SNORD28 /// SNORD29 /// SNORD31 / Fold change vs veh, SNHG1 /// SNORD22 /// SNORD25 /// SNORD26 /// SNORD27 /// SNORD28 /// SNORD29 /// SNORD31 / Fold change (Aza/veh), C12orf56 (ProbeSet 11735607_a_at) / Fold change (ACY-1035/veh), C12orf56 (ProbeSet 11735607_a_at) / Fold change (Aza/veh), FGFR1OP (ProbeSet 11751329_s_at) / Fold change (ACY-1035/veh), FGFR1OP (ProbeSet 11751329_s_at) / Fold change (Aza/veh), VPS36 (ProbeSet 11739960_a_at) / Fold change (ACY-1035/veh), VPS36 (ProbeSet 11739960_a_at) / RFU SYPL1 (11715823_x_at) / Fold change /veh SYPL1 (11715823_x_at) / RFU IGFBP7 (11715501_s_at) / Fold change /veh IGFBP7 (11715501_s_at) / RFU REEP3 (11722064_at) / Fold change /veh REEP3 (11722064_at) / RFU IGLL1 (11728026_x_at) / Fold change /veh IGLL1 (11728026_x_at): dose or concentration left out as unconfirmed
Conditions: MV-4-11 cells, 48 hours

Compound: Nc1ncn([C@@H]2O[C@H](CO)[C@@H](O)[C@H]2O)c(=O)n1 [azacitidine]
- RFU LOC101060620 /// MAPK8IP1 (11723275_at): 10.14 RFU
